Experimental data published in US7851637B2, “Compounds and methods for inhibiting the interaction of BCL proteins with binding partners” (Infinity Pharmaceuticals, Inc., priority 2004, dated 2010).
Where two headings read alike, the source gives them in different places.

How the values were obtained:
[1] = test system: RL Human Follicular Lymphoma Cell Line; assay: Alamar blue cytotoxicity assay in RL cells; type: cell-based; settings: 72 h incubation, read-out: Bcl RL Alamar Blue IC50
Procedure: (§1) When RL-cells are exposed to isoxazolidine compounds of the present invention, the inhibitors show a dose-dependent cell-killing in the Alamar blue cytoxicity assay with IC50 values of from about 100 μM to about 1 μM (See Examples). When Panc1 cells are exposed to the isoxazolidine compounds of the present invention in combination with camptothecin, the inhibitors show a synergistic dose-dependent cell killing in the propidium iodide exclusion cell survival assay with IC50 values of from about 100 μM to about 1 μM (See Examples).
• 1) Using 96 well plates, compounds were serially diluted in DMSO from 9 mM to 4 uM • 2) Assay plates were prepared by diluting samples 310 fold into 150 ul of medium containing 30,000 cells/well resulting in a final DMSO concentration of 0.3% and a concentration range from 29 uM to 0.013 uM for each compound. • 3) Plates were incubated at 37 C and 5% CO2 for 72 h • 4) After 72 h, Alamar blue reagent was added to each well and plates read according to manufacturer's instructions
In vitro cytotoxicity data for RL cells is presented below for various compounds of the invention.

[2] = test system: Human Pancreatic Cancer Cell Line Panc1; assay: Cell death assay (propidium iodide/Hoechst) in Panc1 cells with or without camptothecin; type: cell-based; settings: 72 hours, % cell death by propidium iodide/Hoechst
Procedure: as §1
• 1) Compounds were serially diluted in DMSO from a 9 mM stock to a final concentration of 0.004 mM in a 96 well plate. • 2) Assay plates were prepared by diluting compounds 310 fold into 150 ul of medium containing 10,000 cells/well, with or without 3 uM Camptothecin, resulting in a final DMSO concentration of 0.3% and a compound concentration range from 29 uM to […] for each compound. • 3) Assay plates were incubated at 37 C, 5% CO2 for 72 hours. • 4) After 72 hours, propidium iodide and Hoechst dye were added to each well according to manufacturer's instruction. • 5) Plates were imaged on a fluorescence microscope at wavelengths Ex560/Em650 (Propidium iodide) and Ex360/Em465 (Hoechst) • 6) MetaMorph imaging software was used to determine % cell death by dividing the number of propidium iodide stained cells (dead cells) by the number of Hoechst stained cells (all cells), multipled by 100, in each field.
Panc1 invitro cellular data is presented below for various compounds of the invention.

[3] = biological target: Bcl-xL (Homo sapiens, UniProt Q07817); assay: Bcl-xL binding affinity analysis (fluorescence polarization binding assay); parameters: scale not given here
How it was run: (§2)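 FP readout; quantitative in vitro binding format; same method applied to both anti-apoptotic proteins.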

[4] = biological target: Bcl-2 (Homo sapiens, UniProt P10415); assay: Bcl-2 binding affinity analysis (fluorescence polarization binding assay)
How it was run: as §2

[5] = Homo sapiens, PANC-1, without camptothecin, read-out: Panc1 − Cpt IC50
[6] = with 3 uM Camptothecin, read-out: Panc1 + Cpt IC50

Sequence of Bcl-xL (Q07817 whole entry): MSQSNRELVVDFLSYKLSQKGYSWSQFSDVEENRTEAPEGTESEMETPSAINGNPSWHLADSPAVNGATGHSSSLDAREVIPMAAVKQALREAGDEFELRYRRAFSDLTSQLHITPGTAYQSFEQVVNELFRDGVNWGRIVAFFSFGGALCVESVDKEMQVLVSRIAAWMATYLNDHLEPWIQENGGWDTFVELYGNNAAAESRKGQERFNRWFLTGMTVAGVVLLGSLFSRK
Sequence of Bcl-2 (P10415 whole entry): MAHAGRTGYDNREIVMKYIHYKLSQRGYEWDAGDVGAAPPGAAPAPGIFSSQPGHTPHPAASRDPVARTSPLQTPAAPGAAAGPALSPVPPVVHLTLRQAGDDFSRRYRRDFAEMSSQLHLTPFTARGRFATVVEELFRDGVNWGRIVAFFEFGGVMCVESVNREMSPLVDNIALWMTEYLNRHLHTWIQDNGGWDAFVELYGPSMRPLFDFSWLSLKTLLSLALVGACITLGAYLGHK

Structure (SMILES)	IC50 ([1]; Homo sapiens) [µM]	IC50 [2, 5] [µM]	IC50 [2, 6] [µM]	Bcl-XL binding affinity Ki [3]	Ki [4] [µM]	IC50 [1] [µM]
CC(C)C[C@@H](CN(C)C)N(Cc1cccc(CN2O[C@@H](CO)C([C@H](C)O)[C@H]2C(=O)N[C@H]2C[C@H]3C[C@@H]([C@@H]2C)C3(C)C)c1)Cc1ccccc1O (some centres unmarked) [Compound 300]	< 2	> 2.5	1.8 to 2.5	♯	< 0.8	–
COc1ccccc1CN(Cc1cccc(CN2OC(CO)C(C(C)O)C2C(=O)NC2CC3CC(C2C)C3(C)C)c1)C(CC(C)C)CN(C)C (centres unmarked) [Compound 301]	< 2	> 2.5	> 2.5	♯	< 0.8	–
CC(C)CC(CN(C)C)N(Cc1cccc(CN2OC(CO)C(C(C)O)C2C(=O)NC2CC3CC(C2C)C3(C)C)c1)Cc1ccccc1Br (centres unmarked) [Compound 309]	< 2	> 2.5	1.3 to 1.8	♯	< 0.8	–
CC(C)CC(CN(C)C)N(Cc1ccccc1)Cc1cccc(CN2OC(CO)C(C(C)O)C2C(=O)NC2CC3CC(C2C)C3(C)C)c1 (centres unmarked) [Compound 311]	–	> 2.5	1.8 to 2.5	♯	< 0.8	2 to 5
CC(C)CC(CN(C)C)N(Cc1cccc(CN2OC(CO)C(C(C)O)C2C(=O)NC2CC3CC(C2C)C3(C)C)c1)Cc1ccccc1F (centres unmarked) [Compound 312]	< 2	> 2.5	> 2.5	♯	< 0.8	–
CC(C)CC(CN(C)C)N(Cc1cccc(CN2OC(CO)C(C(C)O)C2C(=O)NC2CC3CC(C2C)C3(C)C)c1)Cc1ccccc1Cl (centres unmarked) [Compound 313]	< 2	1.3 to 1.8	1.3 to 1.8	♯	< 0.8	–
CC(C)CC(CN(C)C)N(Cc1cccc(CN2OC(CO)C(C(C)O)C2C(=O)NC2CC3CC(C2C)C3(C)C)c1)Cc1ccccc1C#N (centres unmarked) [Compound 314]	< 2	> 2.5	> 2.5	♯	< 0.8	–
CC(C)CC(CN(C)C)N(Cc1cccc(CN2OC(CO)C(C(C)O)C2C(=O)NC2CC3CC(C2C)C3(C)C)c1)Cc1ccccc1[N+](=O)[O-] (centres unmarked) [Compound 316]	> 5	> 2.5	> 2.5	♯	< 0.8	–
CC(C)CC(CN(C)C)N(Cc1cccc(CN2OC(CO)C(C(C)O)C2C(=O)NC2CC3CC(C2C)C3(C)C)c1)Cc1ccccc1OC(F)(F)F (centres unmarked) [Compound 320]	< 2	> 2.5	1.8 to 2.5	♯	< 0.8	–
CC(C)CC(CN(C)C)N(Cc1cccc(CN2OC(CO)C(C(C)O)C2C(=O)NC2CC3CC(C2C)C3(C)C)c1)Cc1ccccc1C(F)(F)F (centres unmarked) [Compound 321]	< 2	< 1.3	< 1.3	♯	< 0.8	–
Cc1cccc(C)c1CN(Cc1cccc(CN2OC(CO)C(C(C)O)C2C(=O)NC2CC3CC(C2C)C3(C)C)c1)C(CC(C)C)CN(C)C (centres unmarked) [Compound 325]	< 2	< 1.3	< 1.3	♯	< 0.8	–
CC(C)CC(CN(C)C)N(Cc1cccc(CN2OC(CO)C(C(C)O)C2C(=O)NC2CC3CC(C2C)C3(C)C)c1)Cc1c(F)cccc1C(F)(F)F (centres unmarked) [Compound 339]	< 2	> 2.5	> 2.5	♯	< 0.8	–
C[C@@H]1[C@@H](NC(=O)[C@@H]2C([C@H](C)O)[C@H](CO)ON2Cc2cccc(CN(CCN(C)C)Cc3ccccc3Cl)c2)C[C@H]2C[C@@H]1C2(C)C (some centres unmarked) [Compound 346]	2 to 5	> 2.5	> 2.5	♯	< 0.8	–
CC(O)C1C(CO)ON(Cc2cccc(CN(CCN(C)C)Cc3ccccc3Br)c2)C1C(=O)NC1CC2CC(C1C)C2(C)C (centres unmarked) [Compound 348]	> 5	> 2.5	> 2.5	♯	< 0.8	–
CC(O)C1C(CO)ON(Cc2cccc(CN(CCN(C)C)CC3=CCCCC3)c2)C1C(=O)NC1CC2CC(C1C)C2(C)C (centres unmarked) [Compound 354]	< 2	1.8 to 2.5	1.3 to 1.8	♯	< 0.8	–
CC(O)C1C(CO)ON(Cc2cccc(CN(CCN(C)C)Cc3ccccc3C(F)(F)F)c2)C1C(=O)NC1CC2CC(C1C)C2(C)C (centres unmarked) [Compound 357]	2 to 5	> 2.5	> 2.5	♯	< 0.8	–
C[C@@H]1[C@@H](NC(=O)[C@@H]2C([C@H](C)O)[C@H](CO)ON2Cc2cccc(CN(CCN(C)C)Cc3ccc(Br)cc3)c2)C[C@H]2C[C@@H]1C2(C)C (some centres unmarked) [Compound 360]	> 5	> 2.5	> 2.5	♯	< 0.8	–
CC(O)C1C(CO)ON(Cc2cccc(CN(CCN(C)C)CC3CCCC3)c2)C1C(=O)NC1CC2CC(C1C)C2(C)C (centres unmarked) [Compound 363]	> 5	> 2.5	> 2.5	♯	< 0.8	–
CC(O)C1C(CO)ON(Cc2cccc(CN(CCN(C)C)Cc3cccc(Br)c3)c2)C1C(=O)NC1CC2CC(C1C)C2(C)C (centres unmarked) [Compound 366]	2 to 5	1.8 to 2.5	1.8 to 2.5	♯	< 0.8	–
CC(O)C1C(CO)ON(Cc2cccc(CN(CCN(C)C)Cc3ccc4ccccc4c3)c2)C1C(=O)NC1CC2CC(C1C)C2(C)C (centres unmarked) [Compound 375]	> 5	> 2.5	> 2.5	♯	< 0.8	–
CC(O)C1C(CO)ON(Cc2cccc(CN(CCN(C)C)CC3CC3)c2)C1C(=O)NC1CC2CC(C1C)C2(C)C (centres unmarked) [Compound 390]	> 5	> 2.5	> 2.5	♯	< 0.8	–
CC(O)C1C(CO)ON(Cc2cccc(CN(CCN(C)C)CC3CCOC3)c2)C1C(=O)NC1CC2CC(C1C)C2(C)C (centres unmarked) [Compound 391]	> 5	> 2.5	> 2.5	♯	< 0.8	–
CC(O)C1C(CO)ON(Cc2cccc(NC(=O)NC(CCc3ccccc3)CN(C)C)c2)C1C(=O)NC1CC2CC(C1C)C2(C)C (centres unmarked) [Compound 573]	–	–	–	♯	< 0.8	2 to 5
C[C@@H]1[C@@H](NC(=O)[C@@H]2[C@H]([C@H](C)O)[C@H](CO)ON2Cc2cccc(NC(=O)N[C@H](CC3CCCCC3)CN(C)C)c2)C[C@H]2C[C@@H]1C2(C)C [Compound 574]	2 to 5	–	–	♯	< 0.8	–
C[C@@H]1[C@@H](NC(=O)[C@@H]2[C@H]([C@H](C)O)[C@H](CO)ON2Cc2cccc(NC(=O)N(C)[C@@H](CC3CCCCC3)CN(C)C)c2)C[C@H]2C[C@@H]1C2(C)C [Compound 575]	2 to 5	–	–	♯	< 0.8	–
C[C@@H]1[C@@H](NC(=O)[C@@H]2[C@H]([C@H](C)O)[C@H](CO)ON2Cc2cccc(NC(=O)N(C)[C@H](CC3CCCCC3)CN(C)C)c2)C[C@H]2C[C@@H]1C2(C)C [Compound 576]	2 to 5	–	–	♯	< 0.8	–
C[C@@H]1[C@@H](NC(=O)[C@@H]2[C@H]([C@H](C)O)[C@H](CO)ON2Cc2cccc(NC(=O)N[C@@H](CC3CCCCC3)CN(C)C)c2)C[C@H]2C[C@@H]1C2(C)C [Compound 577]	2 to 5	–	–	♯	< 0.8	–
C[C@@H]1[C@@H](NC(=O)[C@@H]2[C@H]([C@H](C)O)[C@H](CO)ON2Cc2cccc(N(CCCN(C)C)Cc3ccccc3C(F)(F)F)c2)C[C@H]2C[C@@H]1C2(C)C [Compound 585]	2 to 5	–	–	♯	< 0.8	–
C[C@@H]1[C@@H](NC(=O)[C@@H]2[C@H]([C@H](C)O)[C@H](CO)ON2Cc2cccc(N(CCCN(C)C)CC3CCCCC3)c2)C[C@H]2C[C@@H]1C2(C)C [Compound 586]	2 to 5	–	–	♯	< 0.8	–
